Data published in patent publication US20100204149A1, “USE OF OCTREOTIDE AS A THERAPEUTIC AGENT” (priority 2007, published 2010).

Experiments:
[1] = system: HCMV strain AD169; assay: HCMV plaque reduction assay in MRC-5 cells; assay type: cell-based; details: peptide 10 micrograms per ml, 7-10 days
Source text: Ganciclovir was used as positive control.

[2] = system: MRC-5 cells (human embryonal lung fibroblasts); assay: Cytotoxicity testing in MRC-5 cells (CellTiter 96); assay type: cell-based; details: 6 days
Procedure: For cytotoxicity testing, MRC-5 cells were seeded at 2,500 cells/well in 96 well plates using growth medium. […] The following day, peptide was added and tested in duplicates. After a 6 days incubation period, cell viability was measured using CellTiter 96 Solution (Promega). Plates were incubated for additional 4 hours at 37° C.

[3] = system: HIV-1IIIB; assay: HIV-1 antiviral assay (CPE reduction) in CEM-SS cells; details: peptide 10 micrograms per ml; 6 days post-infection; MTS
[4] = system: CEM-SS cells; assay: Cytotoxicity (MTS cell viability) in HIV-1 assay; details: peptide 10 micrograms per ml, MTS

| SMILES | % plaque reduction [1] [%] | % Cell viability [2] [%] | % CPE reduction in HIV-1 infected CEM-SS cells [3] [%] | % Cell viability [4] [%] |
| --- | --- | --- | --- | --- |
| Nc1nc(O)c2ncn(COC(CO)CO)c2n1 [Ganciclovir, reference compound] | 100 | 100 |  |  |
| CC(C)(C)NC(=O)[C@@H]1CN(Cc2cccnc2)CCN1C[C@@H](O)C[C@@H](Cc1ccccc1)C(=O)N[C@H]1c2ccccc2C[C@H]1O [Indinavir] |  |  | 100 |  |
| Cc1cn([C@H]2C[C@H](N=[N+]=[N-])[C@@H](CO)O2)c(=O)[nH]c1=O [AZT, reference compound] |  |  | 99 | 97 |
